Measured values from PubChem BioAssay AID602264 (The Scripps Research Institute Molecular Screening Center, 2012).
“And” between values parts separate entries of the source, which are not always exact repeats. Equal entries are not always repeated. The source made the active and inactive calls. How the calls were made is not given here.

Target: Mu-type opioid receptor (Homo sapiens) + Delta-type opioid receptor (Homo sapiens) (UniProt P35372+P41143)
Test: OPRM1-OPRD1 heterodimer agonist potency – cell-based, luminescence, counter-screen for MC4R biased agonist project, dose response (AID 602264)
Settings: cell-based OPRM1-OPRD1 heterodimerization

Chain of Mu-type opioid receptor (Homo sapiens) + Delta-type opioid receptor (Homo sapiens) (P35372 whole entry, looked up): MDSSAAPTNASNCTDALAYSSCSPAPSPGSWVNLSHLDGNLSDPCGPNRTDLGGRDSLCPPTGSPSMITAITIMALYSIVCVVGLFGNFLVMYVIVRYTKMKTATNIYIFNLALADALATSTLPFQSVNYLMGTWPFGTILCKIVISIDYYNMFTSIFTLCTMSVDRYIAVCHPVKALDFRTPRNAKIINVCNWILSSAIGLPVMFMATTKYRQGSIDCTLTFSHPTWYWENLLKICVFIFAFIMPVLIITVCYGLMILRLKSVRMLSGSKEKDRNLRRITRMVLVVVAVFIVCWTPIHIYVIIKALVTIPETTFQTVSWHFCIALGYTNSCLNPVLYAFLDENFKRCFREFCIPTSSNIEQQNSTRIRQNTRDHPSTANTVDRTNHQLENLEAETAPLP
Chain of Mu-type opioid receptor (Homo sapiens) + Delta-type opioid receptor (Homo sapiens) (P41143 whole entry, looked up): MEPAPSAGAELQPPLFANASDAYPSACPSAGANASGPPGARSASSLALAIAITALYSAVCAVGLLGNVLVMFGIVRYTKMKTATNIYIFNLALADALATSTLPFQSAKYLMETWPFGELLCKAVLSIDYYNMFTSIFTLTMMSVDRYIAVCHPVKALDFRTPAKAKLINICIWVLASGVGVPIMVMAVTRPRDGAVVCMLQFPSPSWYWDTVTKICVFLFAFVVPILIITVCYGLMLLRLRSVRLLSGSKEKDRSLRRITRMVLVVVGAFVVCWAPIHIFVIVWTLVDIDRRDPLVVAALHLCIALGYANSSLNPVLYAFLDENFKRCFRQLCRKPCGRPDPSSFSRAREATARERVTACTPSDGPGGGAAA

SMILES | EC50
Cc1cc(N2CCN(C(=O)c3ccco3)CC2)n2nc(-c3cccc(Cl)c3)cc2n1 | > 64.6 µM (inactive)
Cc1ccc(C(=O)Nc2nc(C(N)Cc3ccc(C(F)(F)F)cc3)cs2)cc1 (centres undefined) | > 64.6 µM (inactive)
FC(F)(F)c1cccnc1Oc1ccc(C2=NCCS2)cc1 | > 92.4 µM (inactive)
CCc1ccc(OCCNc2cc(N3CCNC(C)C3)ccc2[N+](=O)[O-])cc1 (centres undefined) | > 92.5 µM (inactive)
COc1cc(O)c(CC=C(C)C)c(O)c1C(=O)CCc1ccc(O)cc1 | > 64.6 µM (inactive)
CC(=O)Nc1cc(-c2cccc(C(=O)N(C)C)c2)cn2c(-c3ccc(F)c(Cl)c3)cnc12 | > 64.6 µM (inactive)
N#C/C(=C\c1cn(CCOc2ccccc2F)c2ccccc12)C(=O)NCc1cccs1 | > 92.4 µM (inactive)
c1ccc(-c2sc3ccccc3c2-c2ccc(OCCN3CCCC3)cc2)cc1 | > 92.5 µM (inactive)
CC(=O)Nc1cc(-c2ccccc2)cn2c(-c3ccc(F)c(Cl)c3)cnc12 | > 92.5 µM (inactive)
Cc1cc(NC(=O)c2cncc(Br)c2)ccc1NC(=O)c1cc2ccccc2o1 | > 64.6 µM (inactive)
O=C(Nc1cccc(NC(=S)NC(=O)c2cccs2)c1)c1ccccc1 | > 92.5 µM (inactive)
O=C(NC(c1ccc(Cl)cc1)c1ccccn1)C1CCN(CCOc2ccc(Cl)cc2Cl)CC1 (centres undefined) | > 92.4 µM (inactive)
CCOc1ccc(NC(=O)CSc2nc(-c3cccs3)cc(C(F)(F)F)n2)c([N+](=O)[O-])c1 | > 64.6 µM (inactive)
COc1ccc(-c2cc(NC(C)=O)c3ncc(-c4cccc(C(C)=O)c4)n3c2)cc1OC | > 64.6 µM (inactive)
Cc1ccc(NC(=O)c2ccccc2OCC(=O)c2ccc(F)cc2)cc1 | > 92.5 µM (inactive)
NC(CCc1ccccc1)c1csc(Nc2ccc(C(=O)c3ccccc3)cc2)n1 (centres undefined) | > 92.5 µM (inactive)
CCc1ccc(CCC(=O)Nc2ncc(Cc3ccccc3Cl)s2)o1 | > 92.5 µM (inactive)
COc1ccc(-c2cc(NC=O)c3ncc(-c4cccc(C(F)(F)F)c4)n3c2)cc1OC | > 64.6 µM (inactive)
O=C1c2cccc3cccc(c23)C(=O)N1CC1CCN(CC(O)COc2ccc3ccccc3c2)CC1 (centres undefined) | > 10.3 µM (inactive)
NC(c1csc(NC(=O)Nc2cccc(Cl)c2)n1)C1CCCCC1 (centres undefined) | > 92.5 µM (inactive)
COc1cc(NC(=O)Nc2nc(C(N)Cc3ccc(C(F)(F)F)cc3)cs2)cc(OC)c1OC (centres undefined) | > 10.3 µM (inactive)
Cc1ccc(Sc2ccc(NC(=O)CCl)cc2)cc1C | inactive
CCC(C)c1ccc(NC(=S)NC2CCN(Cc3ccccc3)CC2)cc1 (centres undefined) | > 64.6 µM (inactive)

SMILES | EC50
COc1ccccc1NC(=O)Nc1nc(C(N)Cc2ccc(Cl)cc2)cs1 (centres undefined) | > 92.5 µM (inactive)
CN(C)c1ccccc1-c1cc(NC=O)c2ncc(-c3cccc(C(F)(F)F)c3)n2c1 | > 64.6 µM (inactive)
COc1ccc(-c2csc(C3=C(O)CN(Cc4ccc(Cl)cc4)C3=N)n2)cc1OC | > 64.6 µM (inactive)
CCOc1cc(CNCCc2c[nH]c3ccccc23)cc(Cl)c1OCC | > 92.5 µM (inactive)
Cc1cc(C)c2sc(N(CCCN(C)C)C(=O)COc3ccc(Cl)cc3)nc2c1 | > 92.5 µM (inactive)
CCCOC(=O)c1cccc(Nc2nc(-c3cccnc3)nc3ccccc23)c1 | > 92.6 µM (inactive)
CCCCCCCCNS(=O)(=O)CCNCCc1ccccc1 | > 92.4 µM (inactive)
CCN1C(=O)/C(=C2/Sc3ccc(OC)cc3N2C)SC1=Nc1cccc(O)c1 | > 92.5 µM (inactive)
N#C/C(=C\c1ccc(-c2ccc(F)cc2)o1)C(=O)Nc1nc(-c2cccs2)cs1 | > 64.6 µM (inactive)
CN(C)CCNC(=O)c1cccc(-c2cnc3c(NC=O)cc(-c4cccc(C(F)(F)F)c4)cn23)c1 | > 64.6 µM (inactive)
CN(C)CCCN(C(=O)CCc1ccccc1)c1nc2ccc(Cl)cc2s1 | > 92.4 µM (inactive)
Cc1cc(C)nc(Nc2nc(C(N)Cc3ccc(C(F)(F)F)cc3)cs2)n1 (centres undefined) | > 92.5 µM (inactive)
COc1cccc(-c2cnc3c(NC(C)=O)cc(-c4ccc(C(=O)N5CCOCC5)cc4)cn23)c1 | > 64.6 µM (inactive)
COc1cccc(-c2sc3ccccc3c2-c2ccc(OCCN(C)C)cc2)c1 | > 64.6 µM (inactive)
CCOC(=O)C(=CNc1ccc2c(c1)nnn2-c1ccc(Cl)cc1)C(=O)OCC | > 64.6 µM (inactive)
O=C(N/N=C/c1ccc(OCc2ccccc2)cc1)c1cccs1 | > 92.5 µM (inactive)
O=C(N=Nc1c(O)n(Cc2ccccc2)c2ccccc12)c1cc2ccccc2cc1O | > 92.5 µM (inactive)
CCN1CCN(Cc2ccc(NC(=O)c3ccc(C)c(NC(=O)C(=O)c4c[nH]c5ccccc45)c3)cc2C(F)(F)F)CC1 | > 10.3 µM (inactive) and > 92.5 µM (inactive)
CCN1CCN(Cc2ccc(NC(=O)c3cc(NC(=O)c4cncc(-c5ccc(C#N)cc5)c4)cc(OC)c3)cc2C(F)(F)F)CC1 | > 64.6 µM (inactive)
COc1cccc(-c2cnc3c(NC(C)=O)cc(-c4ccsc4)cn23)c1 | > 92.5 µM (inactive)
CCCCCCOc1ccc(/C(C)=N/NC2=NCCN2)cc1 | > 92.4 µM (inactive)
CC1(C)Oc2ccc3ccc(=O)oc3c2/C(=C/Nc2ccc(O)cc2)C1=O | > 64.6 µM (inactive)
O=C(Nc1cc(-c2nc3ccccc3s2)ccc1Cl)c1ccc2c(c1)OCO2 | > 92.4 µM (inactive)

SMILES | EC50
CN(C)CCCNC(=O)c1ccc(-c2nc(-c3ccc(Cl)cc3)cs2)cc1 | > 64.6 µM (inactive)
Cc1ccccc1NC(=O)c1ccc(COc2ccc3c(C)cc(=O)oc3c2)cc1 | > 64.6 µM (inactive)
O=C(N/N=C/c1c[nH]c2ccccc12)C1CC1(c1ccccc1)c1ccccc1 (centres undefined) | > 92.5 µM (inactive)
Cc1ccc2sc(N(CCCN(C)C)C(=O)c3ccc(Br)s3)nc2c1C | > 64.6 µM (inactive)
O=C(CSc1ccccc1)Nc1nnc(/C=C/c2ccccc2)s1 | > 92.5 µM (inactive)
CC(=O)Nc1cc(-c2ccc(C(=O)NC3CC3)cc2)cn2c(-c3cccc(C(F)(F)F)c3)cnc12 | > 64.6 µM (inactive)
CCc1ccc(C2CC(c3ccc(F)cc3)Nc3nc(N)nn32)cc1 (centres undefined) | > 92.5 µM (inactive)
COc1cc(NC(=O)COc2ccccc2[N+](=O)[O-])ccc1NC(=O)c1cccs1 | > 92.5 µM (inactive)
Cc1ccc(-c2nnc(-c3ccc(NC(=O)Cc4cccs4)cc3)o2)cc1 | > 64.6 µM (inactive)
CCCCCCCCCCOC(=O)Cn1c(COc2ccc(OC)cc2)[n+](C)c2ccccc21 | > 92.5 µM (inactive)
CC1=NNC(=O)/C1=C\c1cn(-c2ccccc2)nc1-c1ccc(Cl)cc1 | > 92.5 µM (inactive)
Cc1ccccc1-c1nc(-c2ccc(NC(=O)c3ccc4c(c3)OCO4)cc2)no1 | > 92.4 µM (inactive)
COc1ccc(C(NC(=O)C2CCN(CCOc3ccc(Cl)cc3Cl)CC2)c2cccs2)cc1 (centres undefined) | inactive
CC(=O)Nc1cc(-c2ccc(C(=O)N3CCOCC3)cc2)cn2c(-c3ccccc3)cnc12 | > 92.5 µM (inactive)
NC(Cc1ccc(C(F)(F)F)cc1)c1csc(NC(=O)Nc2ccccc2)n1 (centres undefined) | > 92.5 µM (inactive)
Clc1ccc(C[n+]2c(-c3ccccc3)cc(-c3ccccc3)cc2-c2ccccc2)cc1 | > 92.5 µM (inactive)
COc1cccc(-c2cnc3c(NC=O)cc(-c4cc(OC)c(OC)c(OC)c4)cn23)c1 | > 92.5 µM (inactive)
O=C(CCN1C(=O)/C(=C/C=C/c2ccccc2)SC1=S)Nc1ccccn1 | > 92.5 µM (inactive)
Cc1ccc(C(=O)Cn2c(C(=O)/C=C/c3ccccc3)nc3ccccc32)cc1 | > 64.6 µM (inactive)
COc1cccc(CC2(CO)CCCN(Cc3[nH]c4ccc(C)cc4c3C)C2)c1 (centres undefined) | > 92.5 µM (inactive)
COc1ccc(-c2cc(NC=O)c3ncc(-c4ccccc4)n3c2)cc1OC | > 64.6 µM (inactive)
CCC(C)(C)c1ccc(OCCCC[n+]2cccc(C)c2C)c(C(C)(C)CC)c1 | > 64.6 µM (inactive)
NC(Cc1ccc(C(F)(F)F)cc1)c1csc(NC(=O)Nc2ccccc2Cl)n1 (centres undefined) | > 64.6 µM (inactive)

SMILES | EC50
COc1ccc(-c2ccc3c(c2)S(=O)(=O)c2cccc(C(=O)NCc4cc(C)oc4C(F)(F)F)c2C3=O)cc1OC | > 92.5 µM (inactive)
COc1ccccc1-c1cc(NC=O)c2ncc(-c3ccc(F)cc3)n2c1 | > 92.4 µM (inactive)
Cc1ccc(NC(=O)c2ncn(CCCN3CCN(Cc4cccc5ccccc45)CC3)n2)cc1C | > 92.5 µM (inactive)
CCOc1ccc(NC(=S)NC(=O)/C=C/c2ccc(C)cc2)c([N+](=O)[O-])c1 | > 64.6 µM (inactive)
CCCCNc1c(-c2cccc(-c3cc(C(C)=O)cs3)c2)nc2ccc(C)cn12 | > 64.6 µM (inactive)
COc1cc(-c2cc(NC=O)c3ncc(-c4ccccc4)n3c2)cc(OC)c1OC | > 64.6 µM (inactive)
COc1cc2nc(Nc3ccc(C)c(Cl)c3)nc(N)c2cc1OC | > 92.5 µM (inactive)
CC(=O)Nc1cc(-c2ccccc2N(C)C)cn2c(-c3ccc(F)c(Cl)c3)cnc12 | > 64.6 µM (inactive)
CCOc1ccc(Cn2c3ccc(OC)cc3c3nc4ccccc4nc32)cc1OC | > 64.6 µM (inactive)
Cc1ccc(O)c(C(=O)/C=C/c2ccc3c(c2)OCCO3)c1 | > 92.5 µM (inactive)
COc1ccc(-c2cnc3c(NC(C)=O)cc(-c4ccccc4OC)cn23)cc1OC | > 64.6 µM (inactive)
COc1ccc2c(c1)CCc1c(C(=O)Nc3ccn(Cc4ccc(C)cc4)n3)noc1-2 | > 92.4 µM (inactive)
Cc1ccccc1-c1nc(-c2ccc(NC(=O)c3ccc(Br)o3)cc2)no1 | > 92.5 µM (inactive)
CC(=O)c1cccc(-c2cnc3c(NC=O)cc(-c4ccc(N(C)C)cc4)cn23)c1 | > 64.6 µM (inactive)
Nc1c(-c2cccs2)cnn1-c1nc(-c2ccc(Cl)cc2Cl)cs1 | > 64.6 µM (inactive)
CN(C)CCCN(C(=O)c1cc2cc([N+](=O)[O-])ccc2s1)c1nc2cc3c(cc2s1)OCCO3 | > 92.5 µM (inactive)
COc1ccc(-c2sc3ccccc3c2-c2ccc(OCCN(C)C)cc2)cc1 | > 92.5 µM (inactive)
CC(=O)Nc1cc(-c2ccccc2)cn2c(-c3ccc(F)cc3)cnc12 | > 64.6 µM (inactive)
Cc1cc(C)c2sc(N(CCCN(C)C)C(=O)c3ccc(Br)s3)nc2c1 | > 92.5 µM (inactive)
O=C1OC(c2ccccc2)(c2ccc(O)cc2)c2ccccc21 (centres undefined) | > 92.5 µM (inactive)
